According to patent US20210275511A1, “METHYLPHENIDATE COMPOSITIONS FOR TREATMENT OF ATTENTION DEFICIT HYPERACTIVITY DISORDER” (Ironshore Pharmaceuticals & Development, Inc., priority 2019, published 2021):

System: SKAMP scores in children aged 6-12 with attention deficit hyperactivity disorder (ADHD)
Test: Population PK/PD model of SKAMP scores (Study HLD200-107, laboratory classroom)
Format: in vivo, human
Settings: FIG. 37
From the text: PD data. The clinical data used in this analysis were the SKAMP scores collected in a Phase 3 (HLD200-107 study), multicenter, open-label treatment-optimized, double-blind, randomized, placebo-controlled, forced-withdrawal, parallel group study to evaluate the safety and efficacy of evening dosed HLD200, a novel delayed and extended release formulation (DELEXIS) of methylphenidate hydrochloride, in children aged 6-12 with attention deficit hyperactivity disorder (ADHD) in a laboratory classroom setting.
PK/PD model development. In this study, no MPH samples were collected. Therefore the individual exposure, used in the PK/PD analysis were estimated based on the outcomes of population PK model and on the individual demographic (weight and gender) covariate values.
The model included a parametric description of the trajectories of SKAMP scores for placebo and HLD200 treatments. […]
Examples 10 to 15 relate to PK/PD analysis results. […] In the first step, the individual MPH concentrations were derived using the population PK model previously developed jointly with the individual demographic data and the individual HLD200 dosing history, then the placebo data were modelled, and finally the SKAMP scores were analyzed by fixing the placebo and the PK exposure values previously estimated. […]

SMILES: COC(=O)C(c1ccccc1)C1CCCCN1 (stereo not shown) [MPH, methylphenidate]
- Drug concentration required to induce a change from placebo of ~40%: ~15 ng/mL
